Results: patent US11858972B2, “Micropeptides and uses thereof” (FUNDACIÓ PRIVADA INSTITUT D'INVESTIGACIÓ ONCOLÒGICA DE VALL …, priority 2018, dated 2024)
*1 amine or outer side, *2 acyl side, *3 side chain or, on linkers, in order; H or OH if unused. Where a SMILES comes first, the peptide text is derived from it. Bridges are numbered along the chain shown (N, C = ends). Roman numbers before positions name the chains, in order. [ ]: non-standard residue; d: D form. Actinocin(9to1) = Cc1c2oc3c(C)ccc(C(=O)[*:1])c3nc-2c(C(=O)[*:2])c(N)c1=O; NMeV = CN[C@H](C(=O)O)C(C)C; Sar = CNCC(=O)O

Columns and labels:
Format in all cases: cell-based, human
[1] = system: SEQ ID NO:1 in HCT116 and A549 cells; experiment: SEQ ID NO:1 expression (qPCR, Western Blot) after drug treatment, wild-type p53 cells; conditions: cells with wild-type p53 (HCT116 and A549); Doxorubicin 1 μM, Actinomycin D 1 nM, Nutlin-3a 10 μM
Protocol: (§1) FIG. 10. SEQ ID NO: 1 is induced by genotoxic stress in a p53-dependent manner. HCT116, HCT116 p53KO, A549 and BxPC3 were treated with Doxorubicin (1 μM) or Actinomycin D (1 nM) and Nutlin-3a (10 μM). SEQ ID NO: 1 transcriptional levels were measured by qPCR in A549 and HCT116 (A) and in HCT116 p53KO and BxPC-3 (B). mRNA expression is shown relative to the not treated control. SEQ ID NO: 1 protein was measured by Western Blot analysis using a custom-made anti-SEQ ID NO: 1 antibody in A549 and HCT116 (A) and in HCT116 p53KO and BxPC-3 (B). (C) Immunostaining showing the upregulation of SEQ ID NO: 1 in A549 cells using a custom-made anti-SEQ ID NO: 1 antibody upon Doxorubicin treatment.
(§2) Doxorubicin, Actinomycin D and Nutlin-3a were purchased from Sigma-Aldrich. Doxorubicin was used at 1 μM, Actinomycin D was used at […] and Nutlin-3a was used at 10 μM in drug treatment experiments.
(§3) Total RNA was extracted with Trizol® and treated with TURBO™ DNase following provider's recommendations. 1 μg of RNA was retrotranscribed using iScript™ cDNA Synthesis Kit (BioRad). Gene expression was analysed by quantitative real time PCR using PowerUp SYBR Green Master Mix (Thermo Fisher Scientific) in the 7900HT Fast Real-Time PCR System (Applied Biosystems). Cycle threshold (Ct) values were normalized to GAPDH.
(§4) Cells pellets (4-5*10^6 cells) were homogenized in medium-salt lysis buffer (150 mM NaCl, 50 mM Tris pH 8, 1% NP40 and protein inhibitors cocktail). 50 μg of protein was loaded per lane in a 12% acrylamide gel and electrophoresed in Tris-Glycine SDS Running Buffer. The following antibodies were used: Anti-HA-Tag (Abcam, 1:5000), Anti-p53 (Santa Cruz, 1:1000), Anti-p21 (Thermo Fisher, 1:1000), Anti-GAPDH (Thermo Fisher, 1:5000).

[2] = system: SEQ ID NO:1 in HCT116 p53KO and BxPC-3 cells; experiment: SEQ ID NO:1 expression (qPCR, Western Blot) after drug treatment, p53 altered cells; conditions: p53 status altered: HCT116 p53KO, BxPC-3 (mutant p53); Doxorubicin 1 μM, Actinomycin D 1 nM, Nutlin-3a 10 μM
Protocol: as §1, §2, §3, §4

[3] = system: SEQ ID NO 3 in HCT116; experiment: SEQ ID NO: 3 mRNA levels by RT-qPCR after drug treatment in HCT116; conditions: Nutlin3a 10 μM 48 h, Doxorubicin 1 μM 24 h
Protocol: FIG. 25. […] (A) HCT116 and HCT116 p53KO cells were treated with MDM2 inhibitor Nutlin3a (10 μM) during 48 h. […] SEQ ID NO: 3 mRNA levels were tested by RT-qPCR. mRNA levels are presented relative to GAPDH reference gene. Bars represent average of n=3 technical replicates±SD.
as §2, §3

[4] = system: SEQ ID NO 3 in HCT116 p53 KO; experiment: SEQ ID NO: 3 mRNA levels by RT-qPCR after drug treatment in HCT116 p53 knock-out; conditions: Nutlin3a 10 μM 48 h, Doxorubicin 1 μM 24 h
Protocol: FIG. 25. […] (A) HCT116 and HCT116 p53KO cells were treated with MDM2 inhibitor Nutlin3a (10 μM) during 48 h. SEQ ID NO: 3 transcriptional levels were tested by RT-qPCR. mRNA levels are normalized to untreated control (B) HCT116 and HCT116 p53KO cells were treated with genotoxic agent Doxorubicin (1 μM) during 24 h. SEQ ID NO: 3 mRNA levels were tested by RT-qPCR. mRNA levels are presented relative to GAPDH reference gene. Bars represent average of n=3 technical replicates±SD.
as §2, §3

Row | Compound | expression of SEQ ID NO:1 (mRNA and protein levels) [1] | expression of SEQ ID NO:1 (mRNA and protein levels) [2] | SEQ ID NO 3 transcriptional levels [3] | SEQ ID NO 3 transcriptional levels [4]
1 | COc1cccc2c1C(=O)c1c(O)c3c(c(O)c1C2=O)C[C@@](O)(C(=O)CO)C[C@@H]3O[C@H]1C[C@H](N)[C@H](O)[C@H](C)O1 [Doxorubicin] | transcriptional and translational upregulation | do not shown the same response | upregulated | upregulation was impaired
2 | COc1ccc(C2=N[C@@H](c3ccc(Cl)cc3)[C@@H](c3ccc(Cl)cc3)N2C(=O)N2CCNC(=O)C2)c(OC(C)C)c1 [Nutlin-3a] | transcriptional and translational upregulation | do not shown the same response | upregulated | upregulation was impaired
3 | Cc1c2oc3c(C)ccc(C(=O)N[C@@H]4C(=O)N[C@H](C(C)C)C(=O)N5CCC[C@H]5C(=O)N(C)CC(=O)N(C)[C@@H](C(C)C)C(=O)O[C@@H]4C)c3nc-2c(C(=O)N[C@@H]2C(=O)N[C@H](C(C)C)C(=O)N3CCC[C@H]3C(=O)N(C)CC(=O)N(C)[C@@H](C(C)C)C(=O)O[C@@H]2C)c(N)c1=O [Actinomycin D] (I: T[dV]P[Sar][NMeV] / II: T[dV]P[Sar][NMeV]; ester I:1-I:C, II:1-II:C; linker I:N-II:N via Actinocin(9to1)) | transcriptional and translational upregulation | do not shown the same response | – | –
